Data reported in the supplement of paper PMC10307832.

Tests used:
Test in all cases: relative viability (nuclei count vs DMSO), 5 days (fraction); higher = more cells survive
AZD6482 + OSI-027 = compound: Cc1cc([C@@H](C)Nc2ccccc2C(=O)O)c2nc(N3CCOCC3)cc(=O)n2c1 [AZD6482] + COc1cccc2cc(-c3nc([C@H]4CC[C@H](C(=O)O)CC4)n4ncnc(N)c34)[nH]c12 [OSI-027] (partner 0.5 µM)
In short: (§1)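 The day after seeding in 1536-well plates, lung cancer cell lines were treated by pin tool with a single drug, or with a fixed anchor-drug dose together with five library-drug doses (not always all listed) in √10 steps. After 5 days, a combined fix-and-stain solution (final 0.05% Triton X-100, 1% formaldehyde, 1 ug/ml Hoechst) was added. Nuclei counted on 4× images gave relative viability as treated counts over vehicle counts, reported as the median of duplicate plates.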

[1] = compound: COc1cc2nc(N3CCCN(C)CC3)nc(NC3CCN(Cc4ccccc4)CC3)c2cc1OC + CC(=O)Nc1cccc(-n2c(=O)n(C3CC3)c(=O)c3c(Nc4ccc(I)cc4F)n(C)c(=O)c(C)c32)c1 [Trametinib] (partner 0.02 µM)
In short: as §1

AZD6482 + Pictilisib = compound: Cc1cc([C@@H](C)Nc2ccccc2C(=O)O)c2nc(N3CCOCC3)cc(=O)n2c1 [AZD6482] + CS(=O)(=O)N1CCN(Cc2cc3nc(-c4cccc5[nH]ncc45)nc(N4CCOCC4)c3s2)CC1 [Pictilisib] (partner 1 µM)
In short: as §1

[2] = compound: COc1cc2nc(N3CCCN(C)CC3)nc(NC3CCN(Cc4ccccc4)CC3)c2cc1OC + Cc1nc(Nc2ncc(C(=O)Nc3c(C)cccc3Cl)s2)cc(N2CCN(CCO)CC2)n1 [Dasatinib] (partner 0.075 µM)
In short: as §1

Cell Line: UMC-11
- relative viability (AZD6482 + OSI-027; first compound 0.08 µM): 0.448
- relative viability (AZD6482 + OSI-027; first compound 0.253 µM): 0.464
- relative viability (AZD6482 + OSI-027; first compound 0.8 µM): 0.497
- relative viability (AZD6482 + OSI-027; first compound 2.53 µM): 0.459
- relative viability (AZD6482 + OSI-027; first compound 8 µM): 0.47
- relative viability ([1]; first compound 0.2 µM): 0.741
- relative viability ([1]; first compound 0.6325 µM): 0.729
- relative viability ([1]; first compound 2 µM): 0.836
- relative viability ([1]; first compound 6.325 µM): 0.517
- relative viability (AZD6482 + Pictilisib; first compound 0.08 µM): 0.757
- relative viability (AZD6482 + Pictilisib; first compound 0.253 µM): 0.817
- relative viability (AZD6482 + Pictilisib; first compound 0.8 µM): 0.841
- relative viability (AZD6482 + Pictilisib; first compound 2.53 µM): 0.503
- relative viability (AZD6482 + Pictilisib; first compound 8 µM): 1.04
- relative viability ([2]; first compound 0.2 µM): 0.464
- relative viability ([2]; first compound 0.6325 µM): 0.435
- relative viability ([2]; first compound 2 µM): 0.468
- relative viability ([2]; first compound 6.325 µM): 0.286
